Data from US5843889A, “Glycopeptide antibiotic derivatives” (Eli Lilly and Company, priority 1997, dated 1998).
Converted amounts (≈) assume the structure as drawn.

Legend:
Type in all cases: cell-based
[1] = test system: Entercoccus faecalis 2041; assay: MIC, standard broth micro-dilution assay
Procedure: (§1) The formula I compounds have in vitro and in vivo activity against Gram-positive pathogenic bacteria. The MIC's were determined using a standard broth micro-dilution assay.

[2] = test system: Entercoccus gallinarum 245; assay: MIC, standard broth micro-dilution assay
Procedure: as §1

[3] = test system: Entercoccus faecalis 276; assay: MIC, standard broth micro-dilution assay
Procedure: as §1

[4] = test system: Staphylococcus aureus SA1199; assay: MIC, standard broth micro-dilution assay
Procedure: The MIC's were determined using a standard broth micro-dilution assay.

[5] = test system: Pedicoccus acidilacti; assay: MIC, agar dilution on brain-heart infusion agar; conditions: Pedioccccus acidilacti (mean of 10)

Row | MIC [1] [µg/mL] | MIC [2] [µg/mL] | MIC [3] [µg/mL] | MIC [4] [µg/mL] | MIC [5] [µg/mL] | Compound
1 | 0.25 (≈ 0.144 µM) | 16 (≈ 9.19 µM) | 0.25 (≈ 0.144 µM) | 0.5 (≈ 0.287 µM) |  | CNC(CC(C)C)C(=O)NC1C(=O)NC(CC(N)=O)C(=O)NC2C(=O)NC3C(=O)NC(C(=O)NC(C(=O)O)c4cc(O)cc(O)c4-c4cc3ccc4O)C(OC3CC(C)(N)C(O)C(C)O3)c3ccc(c(Cl)c3)Oc3cc2cc(c3OC2OC(CO)C(O)C(O)C2OC2CC(C)(NCc3ccc4c(c3)OCCO4)C(O)C(C)O2)Oc2ccc(cc2Cl)C1O (stereo not shown) [Compound 56]
2 | ≤ 0.06 | 2 (≈ 1.1 µM) | 0.5 (≈ 0.275 µM) | 1 (≈ 0.55 µM) |  | CNC(CC(C)C)C(=O)NC1C(=O)NC(CC(N)=O)C(=O)NC2C(=O)NC3C(=O)NC(C(=O)NC(C(=O)O)c4cc(O)cc(O)c4-c4cc3ccc4O)C(OC3CC(C)(N)C(O)C(C)O3)c3ccc(c(Cl)c3)Oc3cc2cc(c3OC2OC(CO)C(O)C(O)C2OC2CC(C)(NCc3ccc(Oc4ccc([N+](=O)[O-])cc4)cc3)C(O)C(C)O2)Oc2ccc(cc2Cl)C1O (stereo not shown) [Compound 57, 4-[4-nitrophenoxy]benzyl]
3 |  | 16 (≈ 9.01 µM) | 0.5 (≈ 0.281 µM) | 0.5 (≈ 0.281 µM) |  | CCOc1ccc2ccccc2c1CNC1(C)CC(OC2C(Oc3c4cc5cc3Oc3ccc(cc3Cl)C(OC3CC(C)(N)C(O)C(C)O3)C3NC(=O)C(NC(=O)C5NC(=O)C(CC(N)=O)NC(=O)C(NC(=O)C(CC(C)C)NC)C(O)c5ccc(c(Cl)c5)O4)c4ccc(O)c(c4)-c4c(O)cc(O)cc4C(C(=O)O)NC3=O)OC(CO)C(O)C2O)OC(C)C1O (stereo not shown) [Compound 60, 2-ethoxy-1-naphthylmethyl]
4 | 0.5 (≈ 0.29 µM) | 0.5 (≈ 0.29 µM) | 0.5 (≈ 0.29 µM) | 1 (≈ 0.579 µM) | 55 (≈ 31.9 µM) | CNC(CC(C)C)C(=O)NC1C(=O)NC(CC(N)=O)C(=O)NC2C(=O)NC3C(=O)NC(C(=O)NC(C(=O)O)c4cc(O)cc(O)c4-c4cc3ccc4O)C(OC3CC(C)(N)C(O)C(C)O3)c3ccc(c(Cl)c3)Oc3cc2cc(c3OC2OC(CO)C(O)C(O)C2OC2CC(C)(NCc3cccc4c3OCO4)C(O)C(C)O2)Oc2ccc(cc2Cl)C1O (stereo not shown) [Compound 58, 2,3-methylenedioxybenzyl]
5 | 0.5 (≈ 0.277 µM) | 1 (≈ 0.555 µM) |  | ≤ 0.06 |  | CNC(CC(C)C)C(=O)NC1C(=O)NC(CC(N)=O)C(=O)NC2C(=O)NC3C(=O)NC(C(=O)NC(C(=O)O)c4cc(O)cc(O)c4-c4cc3ccc4O)C(OC3CC(C)(N)C(O)C(C)O3)c3ccc(c(Cl)c3)Oc3cc2cc(c3OC2OC(CO)C(O)C(O)C2OC2CC(C)(NCCc3ccccc3OCc3ccccc3)C(O)C(C)O2)Oc2ccc(cc2Cl)C1O (stereo not shown) [Compound 59, 2-benzyloxyphenethyl]
6 | ≤ 0.06 | 8 (≈ 4.48 µM) | 0.25 (≈ 0.14 µM) |  |  | CNC(CC(C)C)C(=O)NC1C(=O)NC(CC(N)=O)C(=O)NC2C(=O)NC3C(=O)NC(C(=O)NC(C(=O)O)c4cc(O)cc(O)c4-c4cc3ccc4O)C(OC3CC(C)(N)C(O)C(C)O3)c3ccc(c(Cl)c3)Oc3cc2cc(c3OC2OC(CO)C(O)C(O)C2OC2CC(C)(NCc3ccc4c(c3O)Cc3ccccc3-4)C(O)C(C)O2)Oc2ccc(cc2Cl)C1O (stereo not shown) [Compound 103, 2-[1-hydroxy]fluorenylmethyl]
7 | ≤ 0.06 | ≤ 0.06 | ≤ 0.06 |  |  | CNC(CC(C)C)C(=O)NC1C(=O)NC(CC(N)=O)C(=O)NC2C(=O)NC3C(=O)NC(C(=O)NC(C(=O)O)c4cc(O)cc(O)c4-c4cc3ccc4O)C(OC3CC(C)(N)C(O)C(C)O3)c3ccc(c(Cl)c3)Oc3cc2cc(c3OC2OC(CO)C(O)C(O)C2OC2CC(C)(NCc3ccc(OC)c4ccccc34)C(O)C(C)O2)Oc2ccc(cc2Cl)C1O (stereo not shown) [Compound 15, 4-methoxy-1-naphthylmethyl]
8 | ≤ 0.06 | ≤ 0.06 | ≤ 0.06 |  |  | CNC(CC(C)C)C(=O)NC1C(=O)NC(CC(N)=O)C(=O)NC2C(=O)NC3C(=O)NC(C(=O)NC(C(=O)O)c4cc(O)cc(O)c4-c4cc3ccc4O)C(OC3CC(C)(N)C(O)C(C)O3)c3ccc(c(Cl)c3)Oc3cc2cc(c3OC2OC(CO)C(O)C(O)C2OC2CC(C)(NCc3ccc(C#Cc4ccccc4)cc3)C(O)C(C)O2)Oc2ccc(cc2Cl)C1O (stereo not shown) [Compound 79, 4-phenylethynylbenzyl]
9 | 2 (≈ 1.08 µM) | 2 (≈ 1.08 µM) | 2 (≈ 1.08 µM) |  |  | CNC(CC(C)C)C(=O)NC1C(=O)NC(CC(N)=O)C(=O)NC2C(=O)NC3C(=O)NC(C(=O)NC(C(=O)O)c4cc(O)cc(O)c4-c4cc3ccc4O)C(OC3CC(C)(N)C(O)C(C)O3)c3ccc(c(Cl)c3)Oc3cc2cc(c3OC2OC(CO)C(O)C(O)C2OC2CC(C)(NCc3ccc(OCCCCCCc4ccccc4)cc3)C(O)C(C)O2)Oc2ccc(cc2Cl)C1O (stereo not shown) [Compound 219, 4-[6-phenylhexyloxy]benzyl]
10 | 1 (≈ 0.565 µM) | 2 (≈ 1.13 µM) | 1 (≈ 0.565 µM) |  |  | CNC(CC(C)C)C(=O)NC1C(=O)NC(CC(N)=O)C(=O)NC2C(=O)NC3C(=O)NC(C(=O)NC(C(=O)O)c4cc(O)cc(O)c4-c4cc3ccc4O)C(OC3CC(C)(N)C(O)C(C)O3)c3ccc(c(Cl)c3)Oc3cc2cc(c3OC2OC(CO)C(O)C(O)C2OC2CC(C)(NCC3CCC(C4CCCCC4)CC3)C(O)C(C)O2)Oc2ccc(cc2Cl)C1O (stereo not shown) [Compound 164, 4-[cyclohexyl]cyclohexylmethyl]
11 | ≤ 0.06 | 4 (≈ 2.22 µM) | ≤ 0.06 |  |  | CNC(CC(C)C)C(=O)NC1C(=O)NC(CC(N)=O)C(=O)NC2C(=O)NC3C(=O)NC(C(=O)NC(C(=O)O)c4cc(O)cc(O)c4-c4cc3ccc4O)C(OC3CC(C)(N)C(O)C(C)O3)c3ccc(c(Cl)c3)Oc3cc2cc(c3OC2OC(CO)C(O)C(O)C2OC2CC(C)(NCCc3ccc(OCc4ccccc4)cc3)C(O)C(C)O2)Oc2ccc(cc2Cl)C1O (stereo not shown) [Compound 68, 4-benzyloxyphenethyl]
12 | 0.25 (≈ 0.141 µM) | 1 (≈ 0.563 µM) | ≤ 0.06 |  |  | CNC(CC(C)C)C(=O)NC1C(=O)NC(CC(N)=O)C(=O)NC2C(=O)NC3C(=O)NC(C(=O)NC(C(=O)O)c4cc(O)cc(O)c4-c4cc3ccc4O)C(OC3CC(C)(N)C(O)C(C)O3)c3ccc(c(Cl)c3)Oc3cc2cc(c3OC2OC(CO)C(O)C(O)C2OC2CC(C)(NCc3ccc(-c4ccccc4)cc3F)C(O)C(C)O2)Oc2ccc(cc2Cl)C1O (stereo not shown) [Compound 206, 4-phenyl-2-fluorobenzyl]
13 | ≤ 0.06 | 2 (≈ 1.13 µM) | ≤ 0.06 |  |  | CN[C@H](CC(C)C)C(=O)N[C@H]1C(=O)N[C@@H](CC(N)=O)C(=O)N[C@H]2C(=O)N[C@H]3C(=O)N[C@H](C(=O)N[C@H](C(=O)O)c4cc(O)cc(O)c4-c4cc3ccc4O)[C@H](O[C@H]3C[C@](C)(N)[C@@H](O)[C@H](C)O3)c3ccc(c(Cl)c3)Oc3cc2cc(c3O[C@@H]2O[C@H](CO)[C@@H](O)[C@H](O)[C@H]2O[C@H]2C[C@](C)(NCc3ccc(-c4ccc(C)cc4)cc3)[C@@H](O)[C@H](C)O2)Oc2ccc(cc2Cl)[C@H]1O [Compound 97, 4-[4-methylphenyl]benzyl]
14 | ≤ 0.06 | 2 (≈ 1.14 µM) | ≤ 0.06 |  |  | CN[C@H](CC(C)C)C(=O)N[C@H]1C(=O)N[C@@H](CC(N)=O)C(=O)N[C@H]2C(=O)N[C@H]3C(=O)N[C@H](C(=O)N[C@H](C(=O)O)c4cc(O)cc(O)c4-c4cc3ccc4O)[C@H](O[C@H]3C[C@](C)(N)[C@@H](O)[C@H](C)O3)c3ccc(c(Cl)c3)Oc3cc2cc(c3O[C@@H]2O[C@H](CO)[C@@H](O)[C@H](O)[C@H]2O[C@H]2C[C@](C)(NCc3cccc(-c4ccccc4)c3)[C@@H](O)[C@H](C)O2)Oc2ccc(cc2Cl)[C@H]1O [Compound 91, 3-phenylbenzyl]
15 | ≤ 0.06 | 2 (≈ 1.11 µM) | 0.5 (≈ 0.276 µM) |  |  | CNC(CC(C)C)C(=O)NC1C(=O)NC(CC(N)=O)C(=O)NC2C(=O)NC3C(=O)NC(C(=O)NC(C(=O)O)c4cc(O)cc(O)c4-c4cc3ccc4O)C(OC3CC(C)(N)C(O)C(C)O3)c3ccc(c(Cl)c3)Oc3cc2cc(c3OC2OC(CO)C(O)C(O)C2OC2CC(C)(NCc3ccc(Oc4ccc(Cl)cc4)cc3)C(O)C(C)O2)Oc2ccc(cc2Cl)C1O (stereo not shown) [Compound 240, 4-[4-chlorophenoxy]benzyl]
16 | ≤ 0.06 | 1 (≈ 0.562 µM) | 0.5 (≈ 0.281 µM) |  |  | CNC(CC(C)C)C(=O)NC1C(=O)NC(CC(N)=O)C(=O)NC2C(=O)NC3C(=O)NC(C(=O)NC(C(=O)O)c4cc(O)cc(O)c4-c4cc3ccc4O)C(OC3CC(C)(N)C(O)C(C)O3)c3ccc(c(Cl)c3)Oc3cc2cc(c3OC2OC(CO)C(O)C(O)C2OC2CC(C)(NCc3cccc(OC4CCCCC4)c3)C(O)C(C)O2)Oc2ccc(cc2Cl)C1O (stereo not shown) [Compound 153]
17 | 0.5 (≈ 0.278 µM) | 2 (≈ 1.11 µM) | 1 (≈ 0.555 µM) |  |  | CCCc1ccc(-c2ccc(CNC3(C)CC(OC4C(Oc5c6cc7cc5Oc5ccc(cc5Cl)C(OC5CC(C)(N)C(O)C(C)O5)C5NC(=O)C(NC(=O)C7NC(=O)C(CC(N)=O)NC(=O)C(NC(=O)C(CC(C)C)NC)C(O)c7ccc(c(Cl)c7)O6)c6ccc(O)c(c6)-c6c(O)cc(O)cc6C(C(=O)O)NC5=O)OC(CO)C(O)C4O)OC(C)C3O)cc2)cc1 (stereo not shown) [Compound 107, 4-[4-propylphenyl]benzyl]
18 | ≤ 0.06 | 2 (≈ 1.08 µM) | ≤ 0.06 |  |  | CNC(CC(C)C)C(=O)NC1C(=O)NC(CC(N)=O)C(=O)NC2C(=O)NC3C(=O)NC(C(=O)NC(C(=O)O)c4cc(O)cc(O)c4-c4cc3ccc4O)C(OC3CC(C)(N)C(O)C(C)O3)c3ccc(c(Cl)c3)Oc3cc2cc(c3OC2OC(CO)C(O)C(O)C2OC2CC(C)(NCc3ccc(-c4ccccc4[N+](=O)[O-])c([N+](=O)[O-])c3)C(O)C(C)O2)Oc2ccc(cc2Cl)C1O (stereo not shown) [Compound 213, 3-nitro-4-[2-nitrophenyl]benzyl]
19 | ≤ 0.06 | 2 (≈ 1.11 µM) | ≤ 0.06 |  |  | CNC(CC(C)C)C(=O)NC1C(=O)NC(CC(N)=O)C(=O)NC2C(=O)NC3C(=O)NC(C(=O)NC(C(=O)O)c4cc(O)cc(O)c4-c4cc3ccc4O)C(OC3CC(C)(N)C(O)C(C)O3)c3ccc(c(Cl)c3)Oc3cc2cc(c3OC2OC(CO)C(O)C(O)C2OC2CC(C)(NCc3ccc(Cc4ccccc4)c(OC)c3)C(O)C(C)O2)Oc2ccc(cc2Cl)C1O (stereo not shown) [Compound 104, 4-benzyl-3-methoxybenzyl]
